Assays:
[1] = tested on: Tyrosine-protein kinase ABL1 (Homo sapiens), P00519 [M351T]; conditions: Compound concentration 1000.0 nM
[2] = target: Tyrosine-protein kinase ABL2 (Homo sapiens) (UniProt P42684); conditions: Compound concentration 1000.0 nM
[3] = target: Cyclin-dependent kinase-like 2 (Homo sapiens) (UniProt Q92772); conditions: Compound concentration 1000.0 nM
[4] = target: Megakaryocyte-associated tyrosine-protein kinase (Homo sapiens) (UniProt P42679); conditions: Compound concentration 1000.0 nM
[5] = target: Discoidin domain-containing receptor 2 (Homo sapiens) (UniProt Q16832); conditions: Compound concentration 1000.0 nM
[6] = tested on: Epidermal growth factor receptor (Homo sapiens), P00533 [UNDEFINED MUTATION]; conditions: Compound concentration 1000.0 nM
[7] = target: Ephrin type-A receptor 1 (Homo sapiens) (UniProt P21709); conditions: Compound concentration 1000.0 nM
[8] = target: Ephrin type-A receptor 2 (Homo sapiens) (UniProt P29317); conditions: Compound concentration 1000.0 nM
Ephrin type-A receptor 2 (Homo sapiens), sequence (P29317 whole entry): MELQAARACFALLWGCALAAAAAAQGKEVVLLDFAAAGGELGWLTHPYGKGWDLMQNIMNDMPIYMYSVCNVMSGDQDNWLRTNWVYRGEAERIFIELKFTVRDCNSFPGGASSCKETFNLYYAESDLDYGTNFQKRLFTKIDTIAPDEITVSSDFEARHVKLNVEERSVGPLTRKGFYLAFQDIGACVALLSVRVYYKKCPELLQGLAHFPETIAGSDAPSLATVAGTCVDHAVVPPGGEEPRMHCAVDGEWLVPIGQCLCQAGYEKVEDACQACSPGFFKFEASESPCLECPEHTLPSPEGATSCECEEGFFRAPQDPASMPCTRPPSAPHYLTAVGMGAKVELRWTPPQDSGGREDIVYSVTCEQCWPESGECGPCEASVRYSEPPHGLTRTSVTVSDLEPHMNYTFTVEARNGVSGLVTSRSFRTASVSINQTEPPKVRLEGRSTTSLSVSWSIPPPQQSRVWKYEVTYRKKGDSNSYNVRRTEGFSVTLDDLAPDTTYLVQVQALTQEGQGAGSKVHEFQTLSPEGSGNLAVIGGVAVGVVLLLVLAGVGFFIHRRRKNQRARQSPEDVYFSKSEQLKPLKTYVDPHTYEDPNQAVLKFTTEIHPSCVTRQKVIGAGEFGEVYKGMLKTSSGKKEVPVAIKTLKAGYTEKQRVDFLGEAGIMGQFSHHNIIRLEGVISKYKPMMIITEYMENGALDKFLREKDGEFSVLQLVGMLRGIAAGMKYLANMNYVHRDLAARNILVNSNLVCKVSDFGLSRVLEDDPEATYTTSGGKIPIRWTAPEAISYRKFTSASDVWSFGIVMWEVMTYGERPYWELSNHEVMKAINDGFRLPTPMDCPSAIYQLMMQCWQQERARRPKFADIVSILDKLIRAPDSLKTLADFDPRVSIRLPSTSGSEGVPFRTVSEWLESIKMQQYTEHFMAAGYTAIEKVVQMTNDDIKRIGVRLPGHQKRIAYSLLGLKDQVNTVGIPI

[9] = target: Receptor tyrosine-protein kinase erbB-2 (Homo sapiens) (UniProt P04626); conditions: Compound concentration 1000.0 nM
Receptor tyrosine-protein kinase erbB-2 (Homo sapiens), sequence (P04626 whole entry): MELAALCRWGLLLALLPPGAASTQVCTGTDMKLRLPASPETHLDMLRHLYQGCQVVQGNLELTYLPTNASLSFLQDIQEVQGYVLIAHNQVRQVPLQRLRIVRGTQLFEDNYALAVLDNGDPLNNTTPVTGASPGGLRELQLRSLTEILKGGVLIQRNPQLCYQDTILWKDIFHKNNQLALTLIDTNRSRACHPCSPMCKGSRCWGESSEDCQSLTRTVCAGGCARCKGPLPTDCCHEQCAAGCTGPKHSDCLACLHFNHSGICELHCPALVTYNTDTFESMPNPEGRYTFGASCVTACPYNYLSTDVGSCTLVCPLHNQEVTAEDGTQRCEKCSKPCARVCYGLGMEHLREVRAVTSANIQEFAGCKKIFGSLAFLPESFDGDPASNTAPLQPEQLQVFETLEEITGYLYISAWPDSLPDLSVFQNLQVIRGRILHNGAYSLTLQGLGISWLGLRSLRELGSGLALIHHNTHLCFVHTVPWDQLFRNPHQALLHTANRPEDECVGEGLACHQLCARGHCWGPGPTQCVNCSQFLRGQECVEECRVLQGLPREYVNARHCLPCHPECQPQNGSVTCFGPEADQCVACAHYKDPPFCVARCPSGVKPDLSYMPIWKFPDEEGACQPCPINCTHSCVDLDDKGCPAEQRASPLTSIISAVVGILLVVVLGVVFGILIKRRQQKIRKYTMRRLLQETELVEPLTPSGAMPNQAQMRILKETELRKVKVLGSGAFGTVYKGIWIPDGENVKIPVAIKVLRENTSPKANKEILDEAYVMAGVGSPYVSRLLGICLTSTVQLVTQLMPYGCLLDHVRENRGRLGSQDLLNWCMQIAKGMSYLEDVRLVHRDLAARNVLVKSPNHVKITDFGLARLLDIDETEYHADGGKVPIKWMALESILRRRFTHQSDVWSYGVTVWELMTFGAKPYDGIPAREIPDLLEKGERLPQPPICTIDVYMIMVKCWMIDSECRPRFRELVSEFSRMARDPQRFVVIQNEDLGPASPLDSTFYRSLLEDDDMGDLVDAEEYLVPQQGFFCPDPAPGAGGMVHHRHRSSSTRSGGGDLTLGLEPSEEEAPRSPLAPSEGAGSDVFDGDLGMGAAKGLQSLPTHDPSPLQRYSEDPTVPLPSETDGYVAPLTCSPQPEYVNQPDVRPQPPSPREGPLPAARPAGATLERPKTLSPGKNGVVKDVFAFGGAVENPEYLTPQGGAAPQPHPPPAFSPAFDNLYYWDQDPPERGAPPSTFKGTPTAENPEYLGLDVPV

[10] = target: Serine/threonine-protein kinase/endoribonuclease IRE1 (Homo sapiens) (UniProt O75460); conditions: Compound concentration 1000.0 nM
Serine/threonine-protein kinase/endoribonuclease IRE1 (Homo sapiens), sequence (O75460 19-977 limits assumed): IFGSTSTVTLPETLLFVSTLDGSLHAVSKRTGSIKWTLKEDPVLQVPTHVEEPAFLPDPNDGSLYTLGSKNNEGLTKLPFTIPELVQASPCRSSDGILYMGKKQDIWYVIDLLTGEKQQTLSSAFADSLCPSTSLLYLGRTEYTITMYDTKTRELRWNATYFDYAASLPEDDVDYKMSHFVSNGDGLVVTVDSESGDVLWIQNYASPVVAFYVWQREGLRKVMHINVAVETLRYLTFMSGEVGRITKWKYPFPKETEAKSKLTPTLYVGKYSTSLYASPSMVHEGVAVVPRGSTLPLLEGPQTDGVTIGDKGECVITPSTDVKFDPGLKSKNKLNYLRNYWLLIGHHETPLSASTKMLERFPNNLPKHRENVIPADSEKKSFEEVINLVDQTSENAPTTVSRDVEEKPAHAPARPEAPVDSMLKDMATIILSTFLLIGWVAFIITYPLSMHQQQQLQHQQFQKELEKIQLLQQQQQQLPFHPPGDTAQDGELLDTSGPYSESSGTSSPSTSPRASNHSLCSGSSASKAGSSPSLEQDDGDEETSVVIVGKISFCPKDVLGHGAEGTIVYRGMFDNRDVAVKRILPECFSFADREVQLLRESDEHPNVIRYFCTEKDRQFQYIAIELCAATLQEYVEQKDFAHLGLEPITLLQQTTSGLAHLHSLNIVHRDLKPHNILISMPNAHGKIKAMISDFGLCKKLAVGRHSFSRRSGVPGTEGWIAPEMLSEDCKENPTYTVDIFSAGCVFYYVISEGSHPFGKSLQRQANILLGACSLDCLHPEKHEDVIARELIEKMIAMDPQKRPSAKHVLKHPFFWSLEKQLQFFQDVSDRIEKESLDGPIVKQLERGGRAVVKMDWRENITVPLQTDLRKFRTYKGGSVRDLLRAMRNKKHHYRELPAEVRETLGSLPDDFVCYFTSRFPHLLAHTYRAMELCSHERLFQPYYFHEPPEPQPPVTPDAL

[11] = target: Tyrosine-protein kinase Fgr (Homo sapiens) (UniProt P09769); conditions: Compound concentration 1000.0 nM
Tyrosine-protein kinase Fgr (Homo sapiens), sequence (P09769 2-529 limits assumed): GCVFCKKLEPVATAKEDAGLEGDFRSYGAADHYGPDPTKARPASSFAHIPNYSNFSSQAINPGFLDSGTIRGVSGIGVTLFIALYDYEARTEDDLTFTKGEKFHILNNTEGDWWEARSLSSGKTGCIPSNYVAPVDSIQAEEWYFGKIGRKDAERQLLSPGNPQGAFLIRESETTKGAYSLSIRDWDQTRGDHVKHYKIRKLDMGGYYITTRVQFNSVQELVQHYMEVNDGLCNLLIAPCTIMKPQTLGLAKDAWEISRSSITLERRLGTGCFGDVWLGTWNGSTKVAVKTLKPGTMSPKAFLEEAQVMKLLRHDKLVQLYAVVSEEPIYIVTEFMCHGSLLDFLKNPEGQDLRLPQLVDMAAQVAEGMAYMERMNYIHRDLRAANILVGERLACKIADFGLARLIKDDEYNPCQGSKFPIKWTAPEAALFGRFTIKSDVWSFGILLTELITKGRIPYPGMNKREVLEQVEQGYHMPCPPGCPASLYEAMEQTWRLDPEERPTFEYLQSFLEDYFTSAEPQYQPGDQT

[12] = tested on: Receptor-type tyrosine-protein kinase FLT3 (Homo sapiens), P36888 [UNDEFINED MUTATION]; conditions: Compound concentration 1000.0 nM
[13] = tested on: Receptor-type tyrosine-protein kinase FLT3 (Homo sapiens), P36888 [R834Q]; conditions: Compound concentration 1000.0 nM
[14] = target: G protein-coupled receptor kinase 4 (Homo sapiens) (UniProt P32298); conditions: Compound concentration 1000.0 nM
[15] = target: Homeodomain-interacting protein kinase 1 (Homo sapiens) (UniProt Q86Z02); conditions: Compound concentration 1000.0 nM
[16] = target: Homeodomain-interacting protein kinase 3 (Homo sapiens) (UniProt Q9H422); conditions: Compound concentration 1000.0 nM
[17] = target: Tyrosine-protein kinase ITK/TSK (Homo sapiens) (UniProt Q08881); conditions: Compound concentration 1000.0 nM
[18] = target: Tyrosine-protein kinase JAK1 (Homo sapiens) (UniProt P23458); conditions: Compound concentration 1000.0 nM
[19] = target: Mitogen-activated protein kinase 8 (Homo sapiens) (UniProt P45983); conditions: Compound concentration 1000.0 nM
[20] = target: LIM domain kinase 1 (Homo sapiens) (UniProt P53667); conditions: Compound concentration 1000.0 nM
LIM domain kinase 1 (Homo sapiens), sequence (P53667 whole entry, looked up, the tested form may be a part): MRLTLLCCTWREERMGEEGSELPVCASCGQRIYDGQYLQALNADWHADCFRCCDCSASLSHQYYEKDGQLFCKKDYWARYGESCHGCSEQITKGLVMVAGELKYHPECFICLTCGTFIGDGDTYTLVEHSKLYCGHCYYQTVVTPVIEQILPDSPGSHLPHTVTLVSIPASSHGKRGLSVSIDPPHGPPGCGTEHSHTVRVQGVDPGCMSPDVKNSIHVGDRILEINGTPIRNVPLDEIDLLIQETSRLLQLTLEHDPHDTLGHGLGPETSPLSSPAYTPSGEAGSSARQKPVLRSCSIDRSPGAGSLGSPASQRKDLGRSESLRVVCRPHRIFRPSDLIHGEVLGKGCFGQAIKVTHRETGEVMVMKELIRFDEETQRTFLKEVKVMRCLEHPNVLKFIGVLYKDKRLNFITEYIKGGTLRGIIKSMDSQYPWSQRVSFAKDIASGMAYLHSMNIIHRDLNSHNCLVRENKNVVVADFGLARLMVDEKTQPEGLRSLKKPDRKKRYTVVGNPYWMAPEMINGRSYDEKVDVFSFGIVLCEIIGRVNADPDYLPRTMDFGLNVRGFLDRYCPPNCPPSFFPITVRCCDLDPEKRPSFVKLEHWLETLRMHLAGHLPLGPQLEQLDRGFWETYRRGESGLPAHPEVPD

[21] = target: Mitogen-activated protein kinase kinase kinase kinase 5 (Homo sapiens) (UniProt Q9Y4K4); conditions: Compound concentration 1000.0 nM
[22] = target: Serine/threonine-protein kinase MARK1 (Homo sapiens) (UniProt Q9P0L2); conditions: Compound concentration 1000.0 nM
[23] = target: MAP/microtubule affinity-regulating kinase 4 (Homo sapiens) (UniProt Q96L34); conditions: Compound concentration 1000.0 nM
[24] = target: Dual specificity mitogen-activated protein kinase kinase 5 (Homo sapiens) (UniProt Q13163); conditions: Compound concentration 1000.0 nM
[25] = target: Serine/threonine-protein kinase 38 (Homo sapiens) (UniProt Q15208); conditions: Compound concentration 1000.0 nM
[26] = target: Platelet-derived growth factor receptor alpha (Homo sapiens) (UniProt P16234); conditions: Compound concentration 1000.0 nM
[27] = target: Phosphatidylinositol 4,5-bisphosphate 3-kinase catalytic subunit gamma isoform (Homo sapiens) (UniProt P48736); conditions: Compound concentration 1000.0 nM
[28] = target: 1-phosphatidylinositol 3-phosphate 5-kinase (Homo sapiens) (UniProt Q9Y2I7); conditions: Compound concentration 1000.0 nM
[29] = target: Serine/threonine-protein kinase pim-1 (Homo sapiens) (UniProt P11309); conditions: Compound concentration 1000.0 nM
Serine/threonine-protein kinase pim-1 (Homo sapiens), sequence (P11309 whole entry, looked up): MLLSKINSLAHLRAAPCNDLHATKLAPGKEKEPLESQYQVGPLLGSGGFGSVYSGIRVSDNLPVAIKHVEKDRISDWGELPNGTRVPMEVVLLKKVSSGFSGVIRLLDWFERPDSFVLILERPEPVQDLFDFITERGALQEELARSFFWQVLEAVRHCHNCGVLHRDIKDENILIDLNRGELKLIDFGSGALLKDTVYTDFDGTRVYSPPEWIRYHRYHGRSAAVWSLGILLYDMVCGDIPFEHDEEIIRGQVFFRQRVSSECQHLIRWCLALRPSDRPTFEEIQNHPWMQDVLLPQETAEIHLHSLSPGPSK

[30] = target: cAMP-dependent protein kinase catalytic subunit alpha (Homo sapiens) (UniProt P17612); conditions: Compound concentration 1000.0 nM
[31] = target: cGMP-dependent protein kinase 1 (Homo sapiens) (UniProt Q13976); conditions: Compound concentration 1000.0 nM
[32] = tested on: Proto-oncogene tyrosine-protein kinase receptor Ret (Homo sapiens), P07949 [M918T]; conditions: Compound concentration 1000.0 nM
[33] = target: Rho-associated protein kinase 2 (Homo sapiens) (UniProt O75116); conditions: Compound concentration 1000.0 nM
[34] = target: Ribosomal protein S6 kinase alpha-3 (Homo sapiens) (UniProt P51812); conditions: Compound concentration 1000.0 nM
[35] = target: Mitogen-activated protein kinase kinase kinase 7 (Homo sapiens) (UniProt O43318); conditions: Compound concentration 1000.0 nM
[36] = target: 5-hydroxytryptamine receptor 1D (Homo sapiens) (UniProt P28221); conditions: Compound concentration 10.0 uM
5-hydroxytryptamine receptor 1D (Homo sapiens), sequence (P28221 whole entry): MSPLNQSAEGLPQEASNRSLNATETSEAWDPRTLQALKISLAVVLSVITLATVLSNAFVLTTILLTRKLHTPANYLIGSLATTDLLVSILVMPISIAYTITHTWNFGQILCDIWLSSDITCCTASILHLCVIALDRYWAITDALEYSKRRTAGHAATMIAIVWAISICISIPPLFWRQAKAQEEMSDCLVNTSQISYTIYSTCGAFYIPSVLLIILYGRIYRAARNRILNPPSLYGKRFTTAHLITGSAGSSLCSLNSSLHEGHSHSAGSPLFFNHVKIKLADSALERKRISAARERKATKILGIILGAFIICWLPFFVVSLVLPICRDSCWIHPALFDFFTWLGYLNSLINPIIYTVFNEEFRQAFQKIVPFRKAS

[37] = target: Alpha-1A adrenergic receptor (Homo sapiens) (UniProt P35348); conditions: Compound concentration 10.0 uM
[38] = target: T1, Alpha-2C adrenergic receptor (Homo sapiens) (UniProt P18825); conditions: Compound concentration 10.0 uM
T1 sequence (whole entry): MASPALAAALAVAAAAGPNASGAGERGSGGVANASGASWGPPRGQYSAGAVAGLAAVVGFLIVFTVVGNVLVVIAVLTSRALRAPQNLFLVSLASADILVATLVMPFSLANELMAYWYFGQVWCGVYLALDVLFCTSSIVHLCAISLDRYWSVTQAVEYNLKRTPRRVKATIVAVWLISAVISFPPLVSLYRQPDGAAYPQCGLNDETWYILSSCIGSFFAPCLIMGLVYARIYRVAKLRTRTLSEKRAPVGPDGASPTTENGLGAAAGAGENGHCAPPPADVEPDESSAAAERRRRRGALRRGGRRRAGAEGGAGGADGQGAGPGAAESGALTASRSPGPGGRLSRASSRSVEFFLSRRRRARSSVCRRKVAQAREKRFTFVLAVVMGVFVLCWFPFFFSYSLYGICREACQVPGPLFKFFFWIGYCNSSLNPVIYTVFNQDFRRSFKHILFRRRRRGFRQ

Cc1c(C(=O)O)cc(-c2ccc(C3CCNCC3)cc2)c2ccc(-c3ccc(C(F)(F)F)cc3)cc12 [PPTN-NC]
inactive: residual activity [1] 100% | residual activity [2] 100% | residual activity [3] 100% | residual activity [4] 100% | residual activity [5] 100% | residual activity [6] 100% | residual activity [7] 83% | residual activity [8] 100% | residual activity [9] 100% | residual activity [10] 100% | residual activity [11] 100% | residual activity [12] 95% | residual activity [13] 100% | residual activity [14] 100% | residual activity [15] 100% | residual activity [16] 100% | residual activity [17] 100% | residual activity [18] 100% | residual activity [19] 100% | residual activity [20] 100% | residual activity [21] 100% | residual activity [22] 100% | residual activity [23] 97% | residual activity [24] 100% | residual activity [25] 84% | residual activity [26] 100% | residual activity [27] 100% | residual activity [28] 100% | residual activity [29] 100% | residual activity [30] 100% | residual activity [31] 97% | residual activity [32] 100% | residual activity [33] 89% | residual activity [34] 100% | residual activity [35] 100% | inhibition [36] 30.1% | inhibition [37] 25.4% | inhibition [38] 46.4%

O=C(O)c1cc(-c2ccc(C3CCNCC3)cc2)c2ccc(-c3ccc(C(F)(F)F)cc3)cc2c1 [PPTN]
inactive: residual activity [1] 100% | residual activity [2] 100% | residual activity [3] 100% | residual activity [4] 100% | residual activity [5] 100% | residual activity [6] 100% | residual activity [7] 100% | residual activity [8] 100% | residual activity [9] 100% | residual activity [10] 100% | residual activity [11] 100% | residual activity [12] 100% | residual activity [13] 100% | residual activity [14] 72% | residual activity [15] 97% | residual activity [16] 100% | residual activity [17] 100% | residual activity [18] 100% | residual activity [19] 100% | residual activity [20] 100% | residual activity [21] 100% | residual activity [22] 100% | residual activity [23] 100% | residual activity [24] 96% | residual activity [25] 83% | residual activity [26] 100% | residual activity [27] 92% | residual activity [28] 100% | residual activity [29] 100% | residual activity [30] 100% | residual activity [31] 100% | residual activity [32] 92% | residual activity [33] 100% | residual activity [34] 100% | residual activity [35] 100% | inhibition [36] 33.6% | inhibition [37] 46.7% | inhibition [38] 30.2%
